Experimental data reported in PubChem BioAssay AID248 (DTP/NCI, 2004).
Toxic doses and inconclusive results are not listed. No stated cut-off is given here; in the data, active means T/C of 150% or more; inactive means T/C below 125%. Square brackets hold non-standard residues; d marks the D form. Peptide text beside a SMILES is read from it. * marks the point of attachment. ξ: configuration not given here. Pentanoyl = CCCCC(=O)*; ξP = O=C(O)C1CCCN1; OtBu = CC(C)(C)O*

Test system: L1210 leukemia ip in BDF1 mice, survival T/C
Test: NCI In Vivo Anticancer Drug Screen. Data for tumor model L1210 Leukemia (intraperitoneal) in B6D2F1 (BDF1) mice
Settings: endpoint: mean survival time, higher = longer survival
Procedure, shortened: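 Mice bearing the transplanted tumor received compound or vehicle. Survival of the treated group was divided by that of the vehicle-treated control group to give the ratio.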

[1] = dose: 100.0 mg/kg/injection, schedule: Q01DX001 (ip), vehicle: Klucel (hydroxypropylcellulose) (HPC)
[2] = dose: 200.0 mg/kg/injection, schedule: Q01DX001 (ip), vehicle: Klucel (hydroxypropylcellulose) (HPC)
[3] = dose: 50.0 mg/kg/injection, schedule: Q01DX009 (ip), vehicle: saline with Tween-80
[4] = dose: 100.0 mg/kg/injection, schedule: Q04DX003 (ip), vehicle: Klucel (hydroxypropylcellulose) (HPC)
[5] = dose: 100.0 mg/kg/injection, schedule: Q01DX009 (ip), vehicle: Klucel (hydroxypropylcellulose) (HPC)
[6] = dose: 200.0 mg/kg/injection, schedule: Q01DX009 (ip), vehicle: Klucel (hydroxypropylcellulose) (HPC)
[7] = dose: 400.0 mg/kg/injection, schedule: Q01DX009 (ip), vehicle: Klucel (hydroxypropylcellulose) (HPC)
[8] = dose: 200.0 mg/kg/injection, schedule: Q04DX003 (ip), vehicle: Klucel (hydroxypropylcellulose) (HPC)
[9] = dose: 400.0 mg/kg/injection, schedule: Q04DX003 (ip), vehicle: Klucel (hydroxypropylcellulose) (HPC)
[10] = dose: 100.0 mg/kg/injection, schedule: Q04DX003 (ip), vehicle: saline with Tween-80
[11] = dose: 50.0 mg/kg/injection, schedule: Q01DX009 (ip), vehicle: Klucel (hydroxypropylcellulose) (HPC)
[12] = dose: 50.0 mg/kg/injection, schedule: Q01DX001 (ip), vehicle: saline
[13] = dose: 100.0 mg/kg/injection, schedule: Q01DX001 (ip), vehicle: saline

Measured: T/C

Cc1ccc(COP(=O)(c2ccccc2)c2ccccc2)cc1
inactive: dose: 66.0 mg/kg/injection, schedule: Q01DX001 (ip), vehicle: Klucel (hydroxypropylcellulose) (HPC) 98 % of control | [1] 93 % of control | dose: 150.0 mg/kg/injection, schedule: Q01DX001 (ip), vehicle: Klucel (hydroxypropylcellulose) (HPC) 97 % of control | [2] 91 % of control

O=C(O/N=C1\C2CCC(C2)C1Cl)c1ccc([N+](=O)[O-])cc1 (stereo not given)
inactive: dose: 25.0 mg/kg/injection, schedule: Q01DX009 (ip), vehicle: saline with Tween-80 94 % of control | [3] 88 % of control | [4] 102 % of control

COC(=O)C(C)C(=O)OC
inactive: dose: 100.0 mg/kg/injection, schedule: Q01DX009 (ip), vehicle: acetone 93 % of control | dose: 100.0 mg/kg/injection, schedule: Q04DX003 (ip), vehicle: acetone 107 % of control | dose: 200.0 mg/kg/injection, schedule: Q01DX009 (ip), vehicle: acetone 97 % of control | dose: 200.0 mg/kg/injection, schedule: Q04DX003 (ip), vehicle: acetone 97 % of control | dose: 400.0 mg/kg/injection, schedule: Q01DX009 (ip), vehicle: acetone 93 % of control | dose: 400.0 mg/kg/injection, schedule: Q04DX003 (ip), vehicle: acetone 94 % of control

Cc1ccc(C)c(NC(=O)OCCOc2ccccc2)c1
inactive: [5] 101 % of control | dose: 100.0 mg/kg/injection, schedule: Q04DX003 (ip), vehicle: saline 103 % of control | [6] 90 % of control | dose: 200.0 mg/kg/injection, schedule: Q04DX003 (ip), vehicle: saline 104 % of control | [7] 91 % of control | dose: 400.0 mg/kg/injection, schedule: Q04DX003 (ip), vehicle: saline 101 % of control

O=C1C(=O)c2c(nc3ccccn23)-c2ccccc21
inactive: [1] 103 % of control | [2] 94 % of control | dose: 400.0 mg/kg/injection, schedule: Q01DX001 (ip), vehicle: Klucel (hydroxypropylcellulose) (HPC) 105 % of control

CC(C)CP(=S)(CC(C)C)CC(C)C
inactive: dose: 100.0 mg/kg/injection, schedule: Q01DX001 (ip), vehicle: saline with Tween-80 103 % of control | dose: 200.0 mg/kg/injection, schedule: Q01DX001 (ip), vehicle: saline with Tween-80 103 % of control | dose: 400.0 mg/kg/injection, schedule: Q01DX001 (ip), vehicle: saline with Tween-80 89 % of control

CCCCCCC[As](=O)(O)O
inactive: dose: 6.25 mg/kg/injection, schedule: Q01DX009 (ip), vehicle: Klucel (hydroxypropylcellulose) (HPC) 99 % of control | dose: 12.5 mg/kg/injection, schedule: Q01DX009 (ip), vehicle: Klucel (hydroxypropylcellulose) (HPC) 101 % of control

COc1ccccc1C1N(C)CCCN1C
inactive: dose: 6.25 mg/kg/injection, schedule: Q04DX003 (ip), vehicle: saline 96 % of control | dose: 12.5 mg/kg/injection, schedule: Q04DX003 (ip), vehicle: saline 92 % of control | dose: 25.0 mg/kg/injection, schedule: Q04DX003 (ip), vehicle: saline 101 % of control

C[N+]1=CN(c2ccc(Cl)cc2)Cc2cc(Cl)ccc21
inactive: [5] 95 % of control | [4] 105 % of control | [6] 106 % of control | [8] 91 % of control | [7] 107 % of control | [9] 93 % of control

CC(=O)c1ccc(Br)c2ccccc12
inactive: dose: 50.0 mg/kg/injection, schedule: Q04DX003 (ip), vehicle: saline with Tween-80 95 % of control | [10] 100 % of control | dose: 200.0 mg/kg/injection, schedule: Q04DX003 (ip), vehicle: saline with Tween-80 97 % of control | dose: 400.0 mg/kg/injection, schedule: Q04DX003 (ip), vehicle: saline with Tween-80 94 % of control

Cc1cc(=O)[nH]c(N/N=C/c2ccco2)n1
inactive: [11] 96 % of control | [5] 96 % of control | [4] 87 % of control | [6] 95 % of control | [8] 90 % of control

O=[N+]([O-])c1cccc2cccnc12
inactive: [12] 107 % of control | [3] 95 % of control | [13] 107 % of control | dose: 100.0 mg/kg/injection, schedule: Q01DX009 (ip), vehicle: saline with Tween-80 93 % of control

CCCCC(=O)NCC(=O)N1CCCC1C(=O)OC(C)(C)C (stereo not given) (Pentanoyl-Gly-[ξP]-OtBu)
inactive: dose: 100.0 mg/kg/injection, schedule: Q04DX002 (ip), vehicle: Klucel (hydroxypropylcellulose) (HPC) 105 % of control | dose: 200.0 mg/kg/injection, schedule: Q04DX002 (ip), vehicle: Klucel (hydroxypropylcellulose) (HPC) 101 % of control | dose: 400.0 mg/kg/injection, schedule: Q04DX002 (ip), vehicle: Klucel (hydroxypropylcellulose) (HPC) 101 % of control

O=C(O)c1cc(C(=O)c2ccccn2)c2cccc(C(F)(F)F)c2n1
inactive: [11] 98 % of control | [5] 95 % of control | [4] 97 % of control | [6] 93 % of control | [8] 97 % of control

C=CCCCCCCCCC(=O)NCc1ccncc1
inactive: [10] 90 % of control

O=C(O)C1CCC(CC23CC4CC(CC(C4)C2)C3)CC1 (stereo not given)
inactive: [5] 108 % of control | [4] 103 % of control | [6] 103 % of control | [8] 105 % of control | [7] 109 % of control | [9] 101 % of control

O=c1[nH]c(=O)n(C2SC(CO)C(O)C2O)cc1F (stereo not given)
inactive: dose: 18.8 mg/kg/injection, schedule: Q04DX003 (ip), vehicle: saline 102 % of control | dose: 37.5 mg/kg/injection, schedule: Q04DX003 (ip), vehicle: saline 94 % of control | dose: 50.0 mg/kg/injection, schedule: Q04DX003 (ip), vehicle: saline 94 % of control | dose: 100.0 mg/kg/injection, schedule: Q01DX005 (ip), vehicle: saline 97 % of control | dose: 200.0 mg/kg/injection, schedule: Q01DX005 (ip), vehicle: saline 95 % of control

CC12CCC(O)C(C)(C)C1CCC1=C2CCC2(C)C(c3ccoc3)CCC12C (stereo not given)
inactive: dose: 50.0 mg/kg/injection, schedule: Q01DX001 (sc), vehicle: steriod suspending solution 111 % of control | dose: 100.0 mg/kg/injection, schedule: Q01DX001 (sc), vehicle: steriod suspending solution 115 % of control | dose: 200.0 mg/kg/injection, schedule: Q01DX001 (sc), vehicle: steriod suspending solution 105 % of control | dose: 400.0 mg/kg/injection, schedule: Q01DX001 (sc), vehicle: steriod suspending solution 109 % of control

NC(=S)N/N=C1/CCCCC12CCCCC2
inactive: [12] 116 % of control | [13] 91 % of control | dose: 200.0 mg/kg/injection, schedule: Q01DX001 (ip), vehicle: saline 124 % of control | dose: 400.0 mg/kg/injection, schedule: Q01DX001 (ip), vehicle: saline 100 % of control

c1ccc2[nH]c(-c3cscn3)nc2c1
inactive: dose: 75.0 mg/kg/injection, schedule: Q04DX003 (ip), vehicle: saline 103 % of control | dose: 150.0 mg/kg/injection, schedule: Q04DX003 (ip), vehicle: saline 103 % of control | dose: 300.0 mg/kg/injection, schedule: Q04DX003 (ip), vehicle: saline 106 % of control
